Data: patent publication US20240150339A1, “Compounds and Their Use as PDE4 Activators” (Mironid Limited, priority 2021, published 2024)

Key:
PDE4D5 = molecular target: T1, PDE4D5 (Homo sapiens, UniProt Q08499); experiment: PDE assay, activation of full-length human PDE4D5 long form ([3H]cAMP radio-assay); format: biochemical; settings: 30 μM test compound; mean % increase in counts over basal activity
T1 construct: Using Full-Length Human PDE4 Isoforms: Long Forms PDE4D5, PDE4C3, PDE4B1 and Short Form PDE4B2; made in house; cytosol fraction of the cell lysate, not purified
Excerpt: (§1) Experiment 1: Measurement of Modulation of Enzyme Activity by PDE4 Long Form Activators of the Present Invention Using Full-Length Human PDE4 Isoforms: Long Forms PDE4D5, PDE4C3, PDE4B1 and Short Form PDE4B2
(§2) (Marchmont, R. J. and Houslay, M. D. Biochem. J. 187: 381-92, 1980)
(§3) For transient transfection of exogenous PDE4 long isoforms, HEK 293 cells were transfected with pcDNA3.1 or pDEST™ PDE4 expression vectors using Lipofectamine LTX/Plus reagent (Invitrogen) as outlined by the manufacturer.
(§4) Where stable cell lines were generated the clonal isolates were expanded to obtain cell lines that stably expressed the full-length human PDE4 long isoforms and the full length human PDE4B2 short isoform. These were called the HEK-PDE4D5, HEK-PDE4B1 and HEK-PDE4B2 cell lines, respectively.
(§5) HEK-PDE4D5 cells were seeded out in 100 mm plates and incubated at 37° C. in an atmosphere of 5% CO2, 95% air. Cell lysates were prepared using KHEM buffer [50 mM KCl, 10 mM EGTA, 50 mM HEPES (pH 7.2), 1.92 mM MgCl2].
(§6) To prepare the cell lysates, the 100 mm plates containing the cells were placed on ice and washed with ice-cold PBS (phosphate buffered saline, pH 7.4). KHEM buffer (500 μl) was added to the cells. Cells were then scraped off the plate and triturated using a needle (BD Microlance™ 0.8, 40 mm). The lysed cells were then centrifuged at 2000 rpm for 10 minutes to remove cell debris and the supernatant (cell lysate containing recombinant PDE4D5) was transferred to a fresh tube and kept on ice.
(§7) The cell lysate containing recombinant PDE4D5 was transferred into a centrifuge tube and placed into an ultracentrifuge (BECKMAN COULTER) and spun at high speed (100,000 g) for 30 minutes at 4° C. The cytosol fraction was then collected and its protein amount determined using a BCA protein assay.
(§8) PDE assays were performed in thin walled V-bottomed 96-well plates. The assays were performed at a final concentration of 10 mM Tris/5 mM MgCl2 μlus PDE4D5 cell lysate cytosol fraction, containing over-expressed PDE4D5, with and without test compound. The lysate/compound mix were incubated together for 15 min at room temperature on an orbital shaker prior to addition of [^3H] cAMP (final concentration 1 μM [^3H] cAMP; Perkin Elmer) to a final volume of 50 μl per reaction. The reactions were then incubated for 10 minutes at 30° C., terminated by heating for 2 min at 95° C. and allowed to cool. Snake venom (12.5 μl of 1 mg/ml; Crotalus atrox, Sigma) was then added and the plates were agitated and incubated for a further 15 minutes at 30° C. Dowex ion exchange resin (Sigma, chloride form, 200-400 mesh; 200 μl; prepared as a 1:1 Dowex: water stock, thoroughly re-suspended and diluted 2:1 with ethanol) was then added to each well and the plates incubated for 15 min at room temperature on an orbital shaker ensuring sufficient agitation for resin suspension (550 RPM). The reaction mixture was then transferred to a 96 well filter plate (Millipore; […] pore size) and filtered into a receiving 96-well plate to remove the dowex suspension. 30 μL of the filtered solution was then transferred to the wells of an Opti-plate (Perkin Elmer) 96 well assay plate and 120 μl of Microscint 40 scintillation fluid was added. The plate was then placed on an orbital shaker for 10 min at high speed (900 RPM) to mix the sample with scintillation fluid prior to quantitation using a plate based scintillation counter (Top-Count).
(§9) The % increase in counts in the presence of test compound at a particular concentration indicates the % increase in enzyme activity at that concentration.

PDE4C3 = molecular target: T2, PDE4C3 (Homo sapiens, UniProt Q08493); experiment: PDE assay, activation of full-length human PDE4C3 long form ([3H]cAMP radio-assay); format: biochemical; settings: 30 μM test compound; mean % increase in counts over basal activity
T2 construct: Using Full-Length Human PDE4 Isoforms: Long Forms PDE4D5, PDE4C3, PDE4B1 and Short Form PDE4B2; made in house; host or cells: HEK 293 transfected with pcDNA3.1 or pDEST PDE4 expression vector; cytosol fraction of the lysate by analogy to PDE4D5
Excerpt: as §1, §2
For transient transfection of exogenous PDE4 long isoforms, HEK 293 cells were transfected with pcDNA3.1 or pDEST™ PDE4 expression vectors using Lipofectamine LTX/Plus reagent (Invitrogen) as outlined by the manufacturer. […]
as §5, §6, §7, §8, §9

m-IMCD3 cells = experiment: Inhibition of PGE2-stimulated in vitro cyst formation in 3D culture of m-IMCD3 cells; format: cell-based, mouse; settings: Mus musculus, mIMCD3, 144 h; 10 μM test compound; mean cyst area (%) compared to 100% for (DMSO + PGE2) and 0% for DMSO control; 100 nM PGE2; 6 days; read-out: % Cyst area after incubation with 10 μM test compound
Method in brief: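 Mouse m-IMCD3 cells grown in 3D collagen I/Matrigel gels. From 18-24 h after plating, compound (0.1% DMSO) plus 100 nM PGE2 were added and replenished at 2-3 days. After 6 days, imaging gave mean cyst area, scaled to 100% for DMSO+PGE2 and 0% for DMSO alone.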

PDE4B2 = molecular target: T3, PDE4B2 (Homo sapiens, UniProt Q07343); experiment: PDE assay, activity of full-length human PDE4B2 short form ([3H]cAMP radio-assay); format: biochemical; settings: 30 μM test compound; mean % increase in counts over basal activity
T3 construct: the full length human PDE4B2 short isoform; made in house; cytosol fraction of the lysate by analogy to PDE4D5
Excerpt: as §1, §2, §3, §4, §5, §6, §7, §8, §9

T3 sequence (Q07343 1-564 isoform Q07343-2): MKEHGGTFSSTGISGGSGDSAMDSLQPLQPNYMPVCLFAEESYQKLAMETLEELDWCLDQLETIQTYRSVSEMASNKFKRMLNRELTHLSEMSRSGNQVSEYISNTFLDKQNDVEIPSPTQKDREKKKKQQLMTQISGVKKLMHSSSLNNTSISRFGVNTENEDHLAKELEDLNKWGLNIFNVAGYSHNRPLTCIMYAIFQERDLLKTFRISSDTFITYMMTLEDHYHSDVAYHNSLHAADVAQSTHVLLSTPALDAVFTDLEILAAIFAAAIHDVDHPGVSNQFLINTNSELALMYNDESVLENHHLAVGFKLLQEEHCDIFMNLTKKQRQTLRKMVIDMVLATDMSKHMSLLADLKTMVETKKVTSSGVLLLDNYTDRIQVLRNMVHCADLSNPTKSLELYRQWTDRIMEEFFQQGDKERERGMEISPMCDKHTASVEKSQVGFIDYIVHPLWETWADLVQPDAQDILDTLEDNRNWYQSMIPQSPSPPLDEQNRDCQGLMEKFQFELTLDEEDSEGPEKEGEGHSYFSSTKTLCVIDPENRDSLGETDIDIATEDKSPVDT
T2 sequence (Q08493 1-680 isoform Q08493-3): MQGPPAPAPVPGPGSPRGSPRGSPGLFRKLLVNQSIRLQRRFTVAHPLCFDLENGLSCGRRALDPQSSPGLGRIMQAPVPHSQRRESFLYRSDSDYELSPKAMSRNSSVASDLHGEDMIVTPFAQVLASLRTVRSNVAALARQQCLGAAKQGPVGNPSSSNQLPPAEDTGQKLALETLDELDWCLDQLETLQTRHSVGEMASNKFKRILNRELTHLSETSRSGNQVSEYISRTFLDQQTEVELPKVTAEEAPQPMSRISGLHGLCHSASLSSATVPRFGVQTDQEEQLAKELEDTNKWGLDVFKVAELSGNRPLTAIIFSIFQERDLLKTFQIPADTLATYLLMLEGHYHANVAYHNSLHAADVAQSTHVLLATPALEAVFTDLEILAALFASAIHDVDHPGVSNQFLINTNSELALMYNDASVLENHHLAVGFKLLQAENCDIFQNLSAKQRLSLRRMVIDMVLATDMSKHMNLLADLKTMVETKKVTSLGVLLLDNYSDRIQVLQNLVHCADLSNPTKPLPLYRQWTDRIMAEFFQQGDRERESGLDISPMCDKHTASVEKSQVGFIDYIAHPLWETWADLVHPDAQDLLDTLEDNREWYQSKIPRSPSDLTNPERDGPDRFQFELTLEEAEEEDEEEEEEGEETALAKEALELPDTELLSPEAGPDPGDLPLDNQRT
T1 sequence (Q08499 1-745 isoform Q08499-6): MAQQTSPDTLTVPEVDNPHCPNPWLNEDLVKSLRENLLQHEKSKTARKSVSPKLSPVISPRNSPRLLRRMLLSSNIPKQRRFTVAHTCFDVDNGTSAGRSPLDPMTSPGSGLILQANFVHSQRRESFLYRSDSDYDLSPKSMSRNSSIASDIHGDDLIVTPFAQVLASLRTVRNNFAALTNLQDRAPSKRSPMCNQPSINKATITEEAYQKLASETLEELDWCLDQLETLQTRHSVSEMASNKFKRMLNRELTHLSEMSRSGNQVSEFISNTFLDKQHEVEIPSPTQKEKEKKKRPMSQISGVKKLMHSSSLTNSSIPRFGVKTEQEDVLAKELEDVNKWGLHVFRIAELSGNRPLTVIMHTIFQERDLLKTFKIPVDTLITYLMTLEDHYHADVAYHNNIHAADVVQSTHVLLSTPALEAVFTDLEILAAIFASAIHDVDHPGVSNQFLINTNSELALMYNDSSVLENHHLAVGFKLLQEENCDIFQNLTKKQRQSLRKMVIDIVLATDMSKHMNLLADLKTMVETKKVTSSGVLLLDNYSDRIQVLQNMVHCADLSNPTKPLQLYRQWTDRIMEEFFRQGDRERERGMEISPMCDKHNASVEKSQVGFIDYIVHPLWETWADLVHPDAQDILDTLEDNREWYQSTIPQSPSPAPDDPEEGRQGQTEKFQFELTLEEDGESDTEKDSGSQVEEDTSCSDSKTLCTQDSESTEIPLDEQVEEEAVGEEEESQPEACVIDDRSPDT

activation at 30 µM (PDE4D5)	activation at 30 µM (PDE4C3)	% increase in PDE4B2 activity at 30 μM* (PDE4B2)	SMILES	activity at 10 µM (m-IMCD3 cells)
87%	112%	–	Cc1ccncc1-c1nc2ccc(C(=O)N[C@H]3CCOc4ccccc43)cc2s1 [Example 51, (S)-N-(chroman-4-yl)-2-(4-methylpyridin-3-yl)benzo[d]thiazole-6-carboxamide]	-15%
30%	–	−3%	CCN1CCN(c2nc3c(C)cc(C(=O)N[C@H]4CCOc5ccccc54)cc3s2)CC1 [Example 212, (S)-N-(chroman-4-yl)-2-(4-ethylpiperazin-1-yl)-4-methylbenzo[d]thiazole-6-carboxamide]	–
–	35%	–	Cc1cncc(-c2nc3ccc(C(=O)N[C@@H]4c5ccccc5C[C@@H]4O)cc3s2)c1 [Example 39, N-((1R,2S)-2-hydroxy-2,3-dihydro-1H-inden-1-yl)-2-(5-methylpyridin-3-yl)benzo[d]thiazole-6-carboxamide]	–
–	82%	–	COc1ccc(CNC(=O)c2ccc3nc(-c4cncc(C)c4)sc3c2)cc1 [Example 33, N-(4-methoxybenzyl)-2-(5-methylpyridin-3-yl)benzo[d]thiazole-6-carboxamide]	–
–	38%	–	Cc1ncccc1-c1nc2ccc(C(=O)N[C@H]3CCCc4ccccc43)cc2s1 [Example 6, (S)-2-(2-methylpyridin-3-yl)-N-(1,2,3,4-tetrahydronaphthalen-1-yl)benzo[d]thiazole-6-carboxamide]	7%
51%	58%	–	Cc1ccncc1-c1nc2ccc(C(=O)N[C@H]3CCCc4ccccc43)cc2s1 [Example 50, (S)-2-(4-methylpyridin-3-yl)-N-(1,2,3,4-tetrahydronaphthalen-1-yl)benzo[d]thiazole-6-carboxamide]	11%
–	57%	–	Cc1cncc(-c2nc3ccc(C(=O)N[C@H]4CCc5ccccc54)cc3s2)c1 [Example 37, (S)-N-(2,3-dihydro-1H-inden-1-yl)-2-(5-methylpyridin-3-yl)benzo[d]thiazole-6-carboxamide]	–
–	46%	–	O=C(N[C@H]1CCOc2ccccc21)c1ccc2nc(-c3cncc(Cl)c3)sc2c1 [Example 53, (S)-2-(5-chloropyridin-3-yl)-N-(chroman-4-yl)benzo[d]thiazole-6-carboxamide]	–
88%	–	−2%	CCN1CCN(c2nc3cc(C)c(C(=O)N[C@H]4CCOc5ccccc54)cc3s2)CC1 [Example 216, (S)-N-(chroman-4-yl)-2-(4-ethylpiperazin-1-yl)-5-methylbenzo[d]thiazole-6-carboxamide]	-5%
–	32%	–	Cc1cncc(-c2nc3ccc(C(=O)N[C@@H]4CCc5ccccc54)cc3s2)c1 [Example 38, (R)-N-(2,3-dihydro-1H-inden-1-yl)-2-(5-methylpyridin-3-yl)benzo[d]thiazole-6-carboxamide]	–
–	68%	–	Cc1cncc(-c2nc3ccc(C(=O)NC4CCCC4)cc3s2)c1 [Example 43, N-cyclopentyl-2-(5-methylpyridin-3-yl)benzo[d]thiazole-6-carboxamide]	–
31%	–	9%	CCN1CCC(c2nc3c(C)cc(C(=O)N[C@H]4CCOc5ccccc54)cc3s2)CC1 [Example 187, (S)-N-(chroman-4-yl)-2-(1-ethylpiperidin-4-yl)-4-methylbenzo[d]thiazole-6-carboxamide]	–
–	71%	–	Cc1cncc(-c2nc3ccc(C(=O)NC4CCOCC4)cc3s2)c1 [Example 46, 2-(5-methylpyridin-3-yl)-N-(tetrahydro-2H-pyran-4-yl)benzo[d]thiazole-6-carboxamide]	–
–	99%	–	Cc1cncc(-c2nc3ccc(C(=O)NCc4ccc(F)cc4)cc3s2)c1 [Example 32, N-(4-fluorobenzyl)-2-(5-methylpyridin-3-yl)benzo[d]thiazole-6-carboxamide]	18%
–	36%	–	Cc1cncc(-c2nc3ccc(C(=O)NCc4cccc(F)c4)cc3s2)c1 [Example 35, N-(3-fluorobenzyl)-2-(5-methylpyridin-3-yl)benzo[d]thiazole-6-carboxamide]	–
–	76%	–	Cc1cncc(-c2nc3ccc(C(=O)NCc4ccc(Cl)cc4)cc3s2)c1 [Example 31, N-(4-chlorobenzyl)-2-(5-methylpyridin-3-yl)benzo[d]thiazole-6-carboxamide]	–
81%	–	3%	O=C(N[C@H]1CCOc2ccccc21)c1ccc2nc(-c3cccnc3)sc2c1 [Example 9, (S)-N-(chroman-4-yl)-2-(pyridin-3-yl)benzo[d]thiazole-6-carboxamide]	–
36%	–	0%	CCN1CCN(c2nc3ccc(C(=O)N[C@H]4CCOc5ccccc54)c(C)c3s2)CC1 [Example 220, (S)-N-(chroman-4-yl)-2-(4-ethylpiperazin-1-yl)-7-methylbenzo[d]thiazole-6-carboxamide]	–

SMILES	activation at 30 µM (PDE4D5)	activation at 30 µM (PDE4C3)	% increase in PDE4B2 activity at 30 μM* (PDE4B2)	activity at 10 µM (m-IMCD3 cells)
CCN1CC2CCC(C1)N2c1nc2ccc(S(=O)(=O)NC3CCC(F)(F)CC3)cc2s1 [Example 290, N-(4,4-difluorocyclohexyl)-2-(3-ethyl-3,8-diazabicyclo[3.2.1]octan-8-yl)benzo[d]thiazole-6-sulfonamide]	47%	–	11%	16%
